Laboratory results reported in US8680159B2, “Bradykinin 1 receptor modulating compounds” (Gruenenthal GmbH, priority 2010, dated 2014).

target: T1, B1R receptor of the rat (CHO K1 cells stably transfected with the B1R gene of the rat) (Rattus norvegicus, UniProt P97583); test: Functional study on the bradykinin receptor 1 (B1R), Ca2+ fluorescence (Fluo-4) FLIPR/Novostar assay, rB1R cells; assay type: cell-based; details: CHO-K1, 10 μM, read-out: % Inhibition (r-B1R) at 10 μM
T1 construct: expressed in transfected cells; host or cells: CHO K1 cells (Chinese hamster ovary), stably transfected
T1 sequence (P97583 1-337): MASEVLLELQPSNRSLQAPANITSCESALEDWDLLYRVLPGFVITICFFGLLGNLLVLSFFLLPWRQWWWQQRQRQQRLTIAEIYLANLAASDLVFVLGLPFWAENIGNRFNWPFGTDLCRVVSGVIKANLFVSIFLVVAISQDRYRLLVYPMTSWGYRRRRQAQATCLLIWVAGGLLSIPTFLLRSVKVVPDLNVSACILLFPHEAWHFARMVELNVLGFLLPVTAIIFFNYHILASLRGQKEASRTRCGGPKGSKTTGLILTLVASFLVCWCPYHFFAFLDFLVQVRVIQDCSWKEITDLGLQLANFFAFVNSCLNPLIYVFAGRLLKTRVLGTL
Description: The agonistic or antagonistic action of substances can be quantified on the bradykinin receptor 1 (B1R) of the species human and rat using ectopically expressing cell lines (CHO K1 cells) and with the aid of a Ca^2+-sensitive dye (Fluo-4) using a fluorescent imaging plate reader (FLIPR). The indication in % activation is based on the Ca^2+ signal after addition of Lys-Des-Arg^9-bradykinin (0.5 nM) or Des-Arg^9-bradykinin (100 nM). Antagonists lead to suppression of the Ca^2+ influx after the addition of the agonist. % Inhibition compared with the maximum achievable inhibition is indicated.
The agonistic or antagonistic action of substances can be determined on the bradykinin receptor 1 (B1R) of the species human and rat using the following assay. According to this assay, the increase in intracellular Ca^2+ following administration of a B1R agonist is quantified with the aid of a Ca^2+-sensitive dye (Fluo-4 type, Molecular Probes Europe BV, Leiden, Netherlands) using a Fluorescent Imaging Plate Reader (FLIPR, Molecular Devices, Sunnyvale, USA) and/or using a Novostar (BMG Labtech GmbH, Offenburg, Germany).
Chinese hamster ovary cells (CHO K1 cells) which have been stably transfected with the human B1R gene (hB1R cells) or with the B1R gene of the rat (rB1R cells) are used. For functional studies, the cells are plated out on black 96-well plates having a clear base (BD Biosciences, Heidelberg, Germany or Greiner, Frickenhausen, Germany) in a density of 20,000-35,000 cells/well. The cells are left overnight at 37° C. and with 5% CO2 in culture medium (hB1R cells: Nutrient Mixture Ham's F12, Gibco Invitrogen GmbH, Karlsruhe, Germany or DMEM, Sigma-Aldrich, Taufkirchen, Germany; rB1R cells: D-MEM/F12, Gibco Invitrogen GmbH, Karlsruhe, Germany), with 10 vol. % FBS (fetal bovine serum, Gibco Invitrogen GmbH, Karlsruhe, Germany or PAN Biotech GmbH, Aidenbach, Germany). On the following day, the cells are loaded for 60 minutes at 37° C. with 2.13 μM Fluo-4 (Molecular Probes Europe BV, Leiden, Netherlands) in HBSS buffer (Hank's buffered saline solution, Gibco Invitrogen GmbH, Karlsruhe, Germany) […] (Sigma-Aldrich, Taufkirchen, Germany) and 10 mM HEPES (Sigma-Aldrich, Taufkirchen, Germany). The plates are then washed twice with HBSS buffer, and HBSS buffer additionally containing 0.1% BSA (bovine serum albumin; Sigma-Aldrich, Taufkirchen, Germany), 5.6 mM glucose and 0.05% gelatin (Merck KGaA, Darmstadt, Germany) is added to the plates. After incubation for a further 20 minutes at room temperature, the plates are inserted into the FLIPR or Novostar for Ca^2+ measurement. Alternatively, washing is carried out with buffer A (15 mM HEPES, 80 mM NaCl, 5 mM KCl, 1.2 mM CaCl2, 0.7 mM MgSO4, 2 g/l glucose, 2.5 mM probenecid) followed by loading with buffer A with added 2.5 μM Fluo-4 and 0.025% Pluronic F127 (Sigma-Aldrich, Taufkirchen, Germany). The cells are then washed twice with buffer A and incubated for 30 minutes at room temperature with buffer A additionally containing 0.05% BSA and 0.05% gelatin and are then inserted into the FLIPR or Novostar for Ca^2+ measurement. The Ca^2+-dependent fluorescence is measured before and after the addition of substances (λex=488 nm, λem=540 nm). Quantification is carried out by measuring the highest fluorescence intensity (FC, fluorescence counts) over time.
The FLIPR protocol consists of 2 substance additions, which are pipetted in the FLIPR. In the case of measurements using the Novostar, only the second substance addition is pipetted in the device. Both devices measure the fluorescence intensity over time. Test substances (10 μM) are first pipetted onto the cells and the intracellular Ca^2+ increase is compared with the control (hB1R: Lys-Des-Arg^9-bradykinin>=50 nM; rB1R: Des-Arg^9-bradykinin>=1 μM). This gives the % activation, based on the Ca^2+ signal after addition of Lys-Des-Arg^9-bradykinin (>=50 nM) or Des-Arg^9-bradykinin (>=1 μM). […]

SMILES	inhibition at 10 µM [%]
CN(C(=O)c1ccc2c(c1)C(NC(=O)c1cc(F)ccc1Cl)CC2)C1CCN(c2ccncc2)CC1 (centres unmarked) [CC_H-200, 3-[(2-Chloro-5-fluoro-benzoyl)amino]-N-methyl-N-(1-pyridin-4-yl-piperidin-4-yl)-2,3-dihydro-1H-indene-5-carboxylic acid amide]	111
CN(C(=O)c1ccc2c(c1)C(NC(=O)c1cc(C(F)(F)F)ccc1Cl)CC2)C1CCN(c2ccncc2)CC1 (centres unmarked) [CC_H-201, 3-[[2-Chloro-5-(trifluoromethyl)-benzoyl]amino]-N-methyl-N-(1-pyridin-4-yl-piperidin-4-yl)-2,3-dihydro-1H-indene-5-carboxylic acid amide]	111
Cc1ccc(F)c(C(=O)NC2CCc3ccc(C(=O)N(C)C4CCN(c5ccncc5)CC4)cc32)c1Cl (centres unmarked) [CC_H-202, 3-[(2-Chloro-6-fluoro-3-methyl-benzoyl)amino]-N-methyl-N-(1-pyridin-4-yl-piperidin-4-yl)-2,3-dihydro-1H-indene-5-carboxylic acid amide]	111
CN(C(=O)c1ccc2c(c1)C(NC(=O)c1cc(Cl)ccc1Cl)CC2)C1CCN(c2ccncc2)CC1 (centres unmarked) [CC_H-203, 3-[(2,5-Dichloro-benzoyl)amino]-N-methyl-N-(1-pyridin-4-yl-piperidin-4-yl)-2,3-dihydro-1H-indene-5-carboxylic acid amide]	111
CN(C(=O)c1ccc2c(c1)C(NC(=O)c1c(Cl)cccc1C(F)(F)F)CC2)C1CCN(c2ccncc2)CC1 (centres unmarked) [CC_H-204, 3-[[2-Chloro-6-(trifluoromethyl)-benzoyl]amino]-N-methyl-N-(1-pyridin-4-yl-piperidin-4-yl)-2,3-dihydro-1H-indene-5-carboxylic acid amide]	110
CN(C(=O)c1ccc2c(c1)C(NC(=O)C1CC1)CC2)C1CCN(c2ccncc2)CC1 (centres unmarked) [CC_H-205, 3-(Cyclopropanecarbonylamino)-N-methyl-N-(1-pyridin-4-yl-piperidin-4-yl)-2,3-dihydro-1H-indene-5-carboxylic acid amide]	98
CN(C(=O)c1ccc2c(c1)C(NC(=O)CC(C)(C)C)CC2)C1CCN(c2ccncc2)CC1 (centres unmarked) [CC_H-206, 3-(3,3-Dimethyl-butanoylamino)-N-methyl-N-(1-pyridin-4-yl-piperidin-4-yl)-2,3-dihydro-1H-indene-5-carboxylic acid amide]	109
COCC(=O)NC1CCc2ccc(C(=O)N(C)C3CCN(c4ccncc4)CC3)cc21 (centres unmarked) [CC_H-207, 3-[(2-Methoxy-acetyl)amino]-N-methyl-N-(1-pyridin-4-yl-piperidin-4-yl)-2,3-dihydro-1H-indene-5-carboxylic acid amide]	89
CN(C(=O)c1ccc2c(c1)C(N(C)C(=O)c1cc(F)ccc1Cl)CC2)C1CCN(c2ccncc2)CC1 (centres unmarked) [CC_H-208, 3-[(2-Chloro-5-fluoro-benzoyl)-methyl-amino]-N-methyl-N-(1-pyridin-4-yl-piperidin-4-yl)-2,3-dihydro-1H-indene-5-carboxylic acid amide]	111
Cc1ccc(F)c(C(=O)N(C)C2CCc3ccc(C(=O)N(C)C4CCN(c5ccncc5)CC4)cc32)c1Cl (centres unmarked) [CC_H-209, 3-[(2-Chloro-6-fluoro-3-methyl-benzoyl)-methyl-amino]-N-methyl-N-(1-pyridin-4-yl-piperidin-4-yl)-2,3-dihydro-1H-indene-5-carboxylic acid amide]	112
CN(C(=O)c1ccc2c(c1)C(N(C)C(=O)c1cc(Cl)ccc1Cl)CC2)C1CCN(c2ccncc2)CC1 (centres unmarked) [CC_H-210, 3-[(2,5-Dichloro-benzoyl)-methyl-amino]-N-methyl-N-(1-pyridin-4-yl-piperidin-4-yl)-2,3-dihydro-1H-indene-5-carboxylic acid amide]	112
CN(C(=O)c1ccc2c(c1)C(N(C)C(=O)C1CCCCC1)CC2)C1CCN(c2ccncc2)CC1 (centres unmarked) [CC_H-211, 3-(Cyclohexanecarbonyl-methyl-amino)-N-methyl-N-(1-pyridin-4-yl-piperidin-4-yl)-2,3-dihydro-1H-indene-5-carboxylic acid amide]	108
CN(C(=O)c1ccc2c(c1)C(N(C)C(=O)C1CC1)CC2)C1CCN(c2ccncc2)CC1 (centres unmarked) [CC_H-212, 3-(Cyclopropanecarbonyl-methyl-amino)-N-methyl-N-(1-pyridin-4-yl-piperidin-4-yl)-2,3-dihydro-1H-indene-5-carboxylic acid amide]	108
CN(C(=O)c1ccc2c(c1)C(N(C)C(=O)CC(C)(C)C)CC2)C1CCN(c2ccncc2)CC1 (centres unmarked) [CC_H-213, 3-(3,3-Dimethyl-butanoyl-methyl-amino)-N-methyl-N-(1-pyridin-4-yl-piperidin-4-yl)-2,3-dihydro-1H-indene-5-carboxylic acid amide]	110
CC(=O)N(C)C1CCc2ccc(C(=O)N(C)C3CCN(c4ccncc4)CC3)cc21 (centres unmarked) [CC_H-215, 3-(Acetyl-methyl-amino)-N-methyl-N-(1-pyridin-4-yl-piperidin-4-yl)-2,3-dihydro-1H-indene-5-carboxylic acid amide]	65
CN(C(=O)c1ccc2c(c1)C(N(C)C(=O)c1cccc(C(F)(F)F)c1Cl)CC2)C1CCN(c2ccncc2)CC1 (centres unmarked) [CC_H-216, 3-[[2-Chloro-3-(trifluoromethyl)-benzoyl]-methyl-amino]-N-methyl-N-(1-pyridin-4-yl-piperidin-4-yl)-2,3-dihydro-1H-indene-5-carboxylic acid amide]	110
CN(C(=O)c1ccc2c(c1)C(N(C)C(=O)Nc1ccccc1Cl)CC2)C1CCN(c2ccncc2)CC1 (centres unmarked) [CC_H-217, 3-[[(2-Chlorophenyl)-carbamoyl]-methyl-amino]-N-methyl-N-(1-pyridin-4-yl-piperidin-4-yl)-2,3-dihydro-1H-indene-5-carboxylic acid amide]	94
CN(C(=O)c1ccc2c(c1)C(N(C)C(=O)Nc1cccc(Cl)c1)CC2)C1CCN(c2ccncc2)CC1 (centres unmarked) [CC_H-218, 3-[[(3-Chlorophenyl)-carbamoyl]-methyl-amino]-N-methyl-N-(1-pyridin-4-yl-piperidin-4-yl)-2,3-dihydro-1H-indene-5-carboxylic acid amide]	109
CN(C(=O)c1ccc2c(c1)C(N(C)C(=O)Nc1c(Cl)cccc1Cl)CC2)C1CCN(c2ccncc2)CC1 (centres unmarked) [CC_H-219, 3-[[(2,6-Dichloro-phenyl)-carbamoyl]-methyl-amino]-N-methyl-N-(1-pyridin-4-yl-piperidin-4-yl)-2,3-dihydro-1H-indene-5-carboxylic acid amide]	86
CN(C(=O)c1ccc2c(c1)C(N(C)C(=O)Nc1cccc(Cl)c1Cl)CC2)C1CCN(c2ccncc2)CC1 (centres unmarked) [CC_H-220, 3-[[(2,3-Dichloro-phenyl)-carbamoyl]-methyl-amino]-N-methyl-N-(1-pyridin-4-yl-piperidin-4-yl)-2,3-dihydro-1H-indene-5-carboxylic acid amide]	107
